Results reported in patent publication US7771753B2, “Topical formulations comprising ceramic hydroxyapatite particles” (Laboratory Skin Care, Inc., priority 1995, dated 2010).

System: microorganisms (bacteria, fungi, pseudomonas aeruginosa, pseudomonas capacia, staphylococcus aureus, escherichia coli, candida albicans, aspergillus niger …)
Test: Antimicrobial effectiveness of the agent used in the formulation
Conditions: salmonella typhimurium
From the text: A preferred chemical antimicrobial agent for use under the invention is Triclosan. This agent used in the formulation has been found effective against the whole genera of microorganisms, (for example: bacteria, fungi, pseudomonas aeruginosa, pseudomonas capacia, staphylococcus aureus, escherichia coli, candida albicans, aspergillus niger, salmonella typhimurium, etc . . . ). […] The antimicrobial chemical agent is normally present in an amount of from 0.001-5% by weight, preferably from 0.05-2% by weight, and more preferably from 0.1-1% by weight.

For `Oc1cc(Cl)ccc1Oc1ccc(Cl)cc1Cl` [Triclosan], the effectiveness against microorganisms was “effective”.
